# Source: patent publication US20260176285A1, “SALT OF DIOXANE QUINOLINE COMPOUND, CRYSTAL FORM THEREOF, PREPARATION METHODS THEREFOR AND USES THEREOF” (Beijing Scitech-MQ Pharmaceuticals Limited, priority 2022, published 2026)
# How the values were obtained:
# [1] = Equilibrium solubility in water; assay type: physicochemical; conditions: H2O, room temperature, 24 hours; listed as p-Toluenesulfonate salt crystal form B-III
# Experimental: The sample was centrifuged and filtered, and the filtrate was tested by HPLC.
# [2] = Hygroscopicity by dynamic moisture sorption (DVS); assay type: physicochemical; conditions: for Moisture adsorption (25° C./80% RH) / Hygroscopicity: DVS
# Experimental: Dynamic moisture sorption (DVS): The curves were collected on a DVS Intrinsic of SMS (Surface Measurement Systems). At 25° C., the humidity range was 0% RH-95% RH, the step was 10% (the last step was 5%), and the dm/dt was 0.002%/min.
# The hygroscopicity of the free compound of formula (I), mucate salt crystal form A-I, p-toluenesulfonate salt crystal forms A-II and B-III, di-p-toluenesulfonate salt crystal form A-IV and phosphate salt crystal form A-V was evaluated by dynamic moisture sorption instrument (DVS). Starting from 0% relative humidity (0% RH), the test collected the mass change percentage of the samples under constant temperature of 25° C. with humidity changes (0% RH-95% RH-0% RH).
# [3] = Solid-state stability evaluation (XRPD, HPLC); assay type: physicochemical
# Experimental: The following 6 test samples were placed under 25° C./60% RH and 40° C./75% RH conditions for 1 week, and then the physical and chemical stability of the samples was tested by XRPD and HPLC.
# At the same time, after the p-toluenesulfonate salt crystal form A-II and crystal form B-III solids were placed at 80° C. for 24 hours, the physical and chemical stability of the samples were tested by XRPD and HPLC.
# [4] = Dynamic solubility in water, SGF, FaSSIF and FeSSIF; assay type: physicochemical; conditions: for solubility at 1 h / solubility at 2 h / solubility at 4 h / solubility at 24 h: 37 °C, thermodynamic from solid
# Experimental: Biological solvent Preparation • 1. […] 67.5 μL of concentrated hydrochloric acid (12 M) was added and the mixture was adjusted to a pH value of 1.8 with 1 M hydrochloric acid or 1 M NaOH solution. Purified water was added to make up to volume. • 2. Preparation of Fasted State Simulated Intestinal Fluid (FaSSIF): 0.17 g of anhydrous NaH2PO4, 0.021 g of NaOH, and 0.31 g of NaCl were weighed into a 50-mL volumetric flask. About 48 mL of purified water was added to dissolve the mixture completely, and the solution was adjusted to a pH value of 6.5 with 1 M hydrochloric acid or 1 M NaOH solution. Purified water was added to make up to volume. 0.11 g of SIF powder was added and dissolved completely. • 3. Preparation of Fed State Simulated Intestinal Fluid (FeSSIF): 0.41 mL of glacial acetic acid, 0.20 g of NaOH and 0.59 g of NaCl were weighed into a 50-mL volumetric flask. About 48 mL of purified water was added to dissolve the mixture completely, and the solution was adjusted to a pH value of 5.0 with 1 M hydrochloric acid or 1 M NaOH solution. Purified water was added to make up to volume. 0.56 g of SIF powder was added and dissolved completely.
# The dynamic solubility of the free state, the mucate salt crystal form A-I, the p-toluenesulfonate salt crystal form A-II, the di-p-toluenesulfonate salt crystal form A-IV and the phosphate salt crystal form A-V of the compound of formula (I) in water and three biological solvents was evaluated.
# The samples at each time point were centrifuged and filtered (0.45 μm PTFE filter head), and the HPLC concentration and pH value of the filtrate were determined.
# [5] = system: human lung cancer cells EBC-1; assay: Efficacy in nude mouse tumor-bearing model of human lung cancer cells EBC-1; assay type: in vivo, Balb/c nude mouse
# Excerpt: In this assay, the free compound of formula (I) of the present application and different salts of the compound prepared in Examples 1, 2 and 5 were orally administered to a nude mouse tumor-bearing model of human lung cancer cells EBC-1 to study their effects on tumor growth.
# Preparation of test compounds: an appropriate weight of the test compound (including the free form of the compound of formula (I) and different salts of the compound prepared in Examples 1, 2 and 5) was weighed, completely suspended/dissolved in an appropriate volume of 0.1% sodium carboxymethyl cellulose, stirred and vortexed to give a uniform solution or suspension.
# Methods: All assays were authorized by the Animal Welfare Committee. EBC-1 in the logarithmic growth phase was inoculated into immune-deficient nude mice (BALB/c nude, female, 6-8 weeks old, weighing 18±2 g), subcutaneously on the right back, with a cell inoculation amount of 5×10^6/mouse. After the tumor grew to 150-200 mm^3, the animals were randomly divided into groups, 6 mice per group. The dose of each test substance was set at 15 mg/kg and 7.5 mg/kg (both based on the concentration of the effective formula (I) compound), and administered once a day for about 3 weeks. The test compounds were freshly prepared each day before use. During the assay, the tumor diameter was measured twice a week, and the mice were weighed at the same time. The calculation formula of tumor volume (TV) is: TV=1/2×a×b^2, where a and b represent length and width, respectively. The relative tumor volume (RTV) was calculated based on the measurement results, and the calculation formula is: RTV=Vt/V0, wherein V0 is the tumor volume measured at the time of cage grouping and dosing initiation (i.e., d0), and Vt is the tumor volume at each measurement. The evaluation index of antitumor activity is the relative tumor proliferation rate T/C (%), calculated as follows: T/C (%)=(TRTV/CRTV)×100%, TRTV: RTV of the treatment group; CRTV: RTV of the negative control group. T and C represent the average tumor volume at a certain time point in the drug administration group and the control group, respectively.
# [6] = 40° C./75% RH, 1 week, listed as p-Toluenesulfonate salt crystal form B-III
# [7] = 80° C., 24 hours, listed as p-Toluenesulfonate salt crystal form B-III
# [8] = pH 1.8, simulated gastric fluid
compound,measurement,setting,value
"O=C(Nc1ccc(F)cc1)C1(C(=O)Nc2ccc(Oc3ccnc4cc(OCCCN5CCOCC5)c5c(c34)OCCO5)c(F)c2)CC1 [Example 3, N-(3-fluoro-4-((5-(3-morpholinopropoxy)-2,3-dihydro-[1,4]dioxano[2,3-f]quinolin-10-yl)oxy)phenyl)-N-(4-fluorophenyl)cyclopropane-1,1-dicarboxamide]",Solubility (equilibrium),[1],1300 µg/mL
same,Moisture adsorption (25° C./80% RH),[2]; listed as p-Toluenesulfonate salt crystal form B-III,3.13%
same,Hygroscopicity,"[2]; 25° C., listed as p-Toluenesulfonate salt crystal form B-III",Hygroscopic
same,Purity,"[3]; 25° C./60% RH, 1 week, listed as p-Toluenesulfonate salt crystal form B-III",99.68 area %
same,Purity,[3]; [6],99.63 area %
same,Purity/initial purity,[3]; [6],99.8%
same,Change of Crystal form,"[3]; 80° C., 24 hours",no
same,Purity,[3]; [7],99.56 area %
same,Purity/initial purity,[3]; [7],99.8%
same,Purity,"[3]; Starting, listed as p-Toluenesulfonate salt crystal form B-III",99.79 area %
"O=C(Nc1ccc(F)cc1)C1(C(=O)Nc2ccc(Oc3ccnc4cc(OCCCN5CCOCC5)c5c(c34)OCCO5)c(F)c2)CC1 [Free state, N-(3-fluoro-4-((5-(3-morpholinopropoxy)-2,3-dihydro-[1,4]dioxano[2,3-f]quinolin-10-yl)oxy)phenyl)-N-(4-fluorophenyl)cyclopropane-1,1-dicarboxamide]",S (dynamic solubility),[4],<LOQ
same,solubility at 1 h,[4]; [8],5700 µg/mL
same,solubility at 2 h,[4]; [8],5800 µg/mL
same,solubility at 4 h,[4]; [8],5700 µg/mL
same,solubility at 24 h,[4]; [8],5700 µg/mL
same,solubility at 1 h,"[4]; pH 5, fessif",640 µg/mL
same,solubility at 2 h,"[4]; pH 5, fessif",710 µg/mL
same,solubility at 4 h,"[4]; pH 5, fessif",710 µg/mL
same,solubility at 24 h,"[4]; pH 5, fessif",760 µg/mL
same,solubility at 1 h,"[4]; pH 6.5, fassif",1.8 µg/mL
same,solubility at 2 h,"[4]; pH 6.5, fassif",1.9 µg/mL
same,solubility at 4 h,"[4]; pH 6.5, fassif",2.1 µg/mL
same,solubility at 24 h,"[4]; pH 6.5, fassif",2.5 µg/mL
same,pH of the filtrate,"[4]; FaSSIF, 1 hour",6.4
same,pH of the filtrate,"[4]; FaSSIF, 2 hours",6.4
same,pH of the filtrate,"[4]; FaSSIF, 4 hours",6.4
same,pH of the filtrate,"[4]; FaSSIF, 24 hours",6.4
same,pH of the filtrate,"[4]; FeSSIF, 1 hour",4.9
same,pH of the filtrate,"[4]; FeSSIF, 2 hours",5.0
same,pH of the filtrate,"[4]; FeSSIF, 4 hours",5.0
same,pH of the filtrate,"[4]; FeSSIF, 24 hours",5.0
same,pH of the filtrate,"[4]; H2O, 1 hour",6.7
same,pH of the filtrate,"[4]; H2O, 2 hours",5.5
same,pH of the filtrate,"[4]; H2O, 4 hours",6.7
same,pH of the filtrate,"[4]; H2O, 24 hours",7.8
same,pH of the filtrate,"[4]; SGF, 1 hour",3.6
same,pH of the filtrate,"[4]; SGF, 2 hours",3.7
same,pH of the filtrate,"[4]; SGF, 4 hours",3.7
same,pH of the filtrate,"[4]; SGF, 24 hours",3.8
same,Whether the crystal form changes after DVS test,"[2]; 0% RH-95% RH-0% RH, 25° C.",no
same,Hygroscopicity,[2]; 25° C.,Almost no
same,Moisture adsorption (25° C./80% RH),[2],0.11%
same,Change of Crystal form,"[3]; 25° C./60% RH, 1 week",no
same,Purity,"[3]; 25° C./60% RH, 1 week",99.36 area %
same,Purity/initial purity,"[3]; 25° C./60% RH, 1 week",99.9%
same,Change of Crystal form,"[3]; 40° C./75% RH, 1 week",no
same,Purity,"[3]; 40° C./75% RH, 1 week",99.39 area %
same,Purity/initial purity,"[3]; 40° C./75% RH, 1 week",99.9%
same,Change of Crystal form,[3]; Starting,no
same,Purity,[3]; Starting,99.44 area %
same,T/C (relative tumor proliferation rate),"[5]; 7.5 mg/kg oral once a day, day 3",80.2%
same,T/C (relative tumor proliferation rate),"[5]; 7.5 mg/kg oral once a day, day 7",68.3%
same,T/C (relative tumor proliferation rate),"[5]; 7.5 mg/kg oral once a day, day 10",77.9%
same,T/C (relative tumor proliferation rate),"[5]; 7.5 mg/kg oral once a day, day 14",69.3%
same,T/C (relative tumor proliferation rate),"[5]; 7.5 mg/kg oral once a day, day 18",81.3%
same,T/C (relative tumor proliferation rate),"[5]; 7.5 mg/kg oral once a day, day 21",70.68%
same,T/C (relative tumor proliferation rate),"[5]; 15 mg/kg oral once a day, day 3",88.8%
same,T/C (relative tumor proliferation rate),"[5]; 15 mg/kg oral once a day, day 7",76.9%
same,T/C (relative tumor proliferation rate),"[5]; 15 mg/kg oral once a day, day 10",80.4%
same,T/C (relative tumor proliferation rate),"[5]; 15 mg/kg oral once a day, day 14",66.4%
same,T/C (relative tumor proliferation rate),"[5]; 15 mg/kg oral once a day, day 18",72.2%
same,T/C (relative tumor proliferation rate),"[5]; 15 mg/kg oral once a day, day 21",64.60%
